Measured values from patent US20130225633A1, “PHENYL HETEROCYCLOALKYL GLUCOCORTICOID RECEPTOR MODULATORS” (Corcept Therapeutics, Inc., priority 2012, published 2013).

Columns and labels:
[1] = biological target: T1, glucocorticoid receptors (GR) in SW1353/MMTV-5 cells (Homo sapiens, UniProt P04150); assay: GR reporter gene assay using SW1353/MMTV-5 cells (Example 24); format: cell-based
T1 construct: contains endogenous glucocorticoid receptors; endogenous in cells; host or cells: SW1353/MMTV-5 (human chondrosarcoma, stably transfected with pMAMneo-Luc reporter only)
T1 sequence (P04150 1-777): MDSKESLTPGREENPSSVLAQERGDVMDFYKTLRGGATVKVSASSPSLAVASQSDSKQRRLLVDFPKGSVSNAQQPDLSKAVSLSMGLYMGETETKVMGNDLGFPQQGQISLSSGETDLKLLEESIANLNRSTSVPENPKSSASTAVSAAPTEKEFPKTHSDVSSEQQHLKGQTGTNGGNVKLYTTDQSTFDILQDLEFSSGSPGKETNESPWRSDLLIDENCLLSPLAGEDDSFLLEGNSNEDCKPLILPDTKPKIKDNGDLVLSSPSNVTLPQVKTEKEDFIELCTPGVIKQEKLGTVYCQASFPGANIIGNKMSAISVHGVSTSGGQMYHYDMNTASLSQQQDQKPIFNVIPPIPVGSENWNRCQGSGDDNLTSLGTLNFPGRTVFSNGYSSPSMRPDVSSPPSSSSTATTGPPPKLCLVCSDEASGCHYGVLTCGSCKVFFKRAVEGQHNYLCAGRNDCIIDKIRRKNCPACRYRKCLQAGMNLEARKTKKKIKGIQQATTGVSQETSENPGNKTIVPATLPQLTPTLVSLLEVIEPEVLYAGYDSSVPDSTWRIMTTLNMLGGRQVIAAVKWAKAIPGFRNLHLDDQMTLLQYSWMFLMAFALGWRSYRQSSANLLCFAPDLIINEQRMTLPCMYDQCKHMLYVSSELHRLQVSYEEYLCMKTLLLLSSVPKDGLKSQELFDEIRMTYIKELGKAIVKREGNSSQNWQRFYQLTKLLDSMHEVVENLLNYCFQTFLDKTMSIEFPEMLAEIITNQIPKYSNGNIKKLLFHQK
Experimental: SW1353/MMTV-5 is an adherent human chondrosarcoma cell line that contains endogenous glucocorticoid receptors. It was transfected with a plasmid (pMAMneo-Luc) encoding firefly luciferase located behind a glucocorticoid-responsive element (GRE) derived from a viral promoter (long terminal repeat of mouse mammary tumor virus). A stable cell line SW1353/MMTV-5 was selected with geneticin, which was required to maintain this plasmid.
SW1353/MMTV-5 cells were distributed in 96-well plates and incubated in medium (without geneticin) for 24 hrs.

[2] = biological target: T2, human recombinant glucocorticoid receptor (Homo sapiens, UniProt P04150); assay: Glucocorticoid receptor binding displacement assay with 3H-dexamethasone (Example 22); conditions: Examples 1-15: 3H-dexamethasone displacement assay of Example 22; read-out: GR binding Ki
T2 construct: This GR was a full-length steroid hormone receptor; host or cells: baculovirus-infected insect cells
T2 sequence (P04150 1-777): T1 sequence (P04150 1-777)
Experimental: Binding protocol: Compounds were tested in a binding displacement assay using human recombinant glucocorticoid receptor with ^3H-dexamethasone as the ligand. The source of the receptor was recombinant baculovirus-infected insect cells. This GR was a full-length steroid hormone receptor likely to be associated with heat-shock and other endogenous proteins.
For the IC50 determinations, test compounds were tested at 6 concentrations in duplicate. Test compounds were diluted from 10 mM stock in 100% DMSO. The tested solutions were prepared at 2× final assay concentration in 2% DMSO/assay buffer.
All reagents and the assay plate were kept on ice during the addition of reagents. The reagents were added to wells of a v-bottomed polypropylene plate in the following order: 25 μl of 10 nM 3H-dexamethasone solution, 50 μl of TB/NSB/compound solution and 25 μl of 2 nM GR solution. After the additions, the incubation mixture was mixed and incubated for 2.5 hrs at 4° C.
After 2.5 hrs incubation, unbound counts were removed with dextran coated charcoal (DCC) as follows: 15 μl of DCC solution (10% DCC in assay buffer) was added to all wells and mixed (total volume 115 μl). The plate was centrifuged at 4000 rpm for 10 minutes at 4° C. 75 μl of the supernatants was carefully pipetted into an optiplate. 150 μl of scintillation cocktail were added (Microscint-40, Perkin Elmer). The plate was vigorously shaken for approximately 10 minutes and counted on a Topcount.
The IC50 values were converted to Ki (the inhibition constant) using the Cheng-Prusoff equation.
Reagents: Assay buffer: 10 mM potassium phosphate buffer pH 7.6 containing 5 mM DTT, 10 mM sodium molybdate, 100 μM EDTA and 0.1% BSA.

O=C(OCF)[C@]12Cc3cnn(-c4ccc(F)cc4)c3C=C1CCN(S(=O)(=O)c1cccc(N3CCCC3)c1)C2 [Example 15, (R)-1-(4-Fluoro-phenyl)-6-[3-(pyrrolidin-1-yl)-benzenesulfonyl]-1,4,5,6,7,8-hexahydro-1,2,6-triaza-cyclopenta[b]naphthalene-4a-carboxylic acid fluoromethyl ester]
Ki [1]: > 20 nM | Ki [2]: 0.5 to 1 nM

COC[C@]12Cc3cnn(-c4ccc(F)cc4)c3C=C1CCN(S(=O)(=O)c1cccc(N3CC[C@H](F)C3)c1)C2 [Example 5, (R)-1-(4-Fluorophenyl)-6-[3-((S)-3-fluoropyrrolidin-1-yl)-benzenesulfonyl]-4a-methoxymethyl-4,4a,5,6,7,8-hexahydro-1H-1,2,6-triaza-cyclopenta[b]naphthalene]
Ki [1]: < 10 nM | Ki [2]: 0.5 to 1 nM

COC(=O)[C@]12Cc3cnn(-c4ccc(F)cc4)c3C=C1CCN(S(=O)(=O)c1cccc(N3CC[C@@H](F)C3)c1)C2 [Example 12, (R)-1-(4-Fluoro-phenyl)-6-[3-((R)-3-fluoro-pyrrolidin-1-yl)-benzenesulfonyl]-1,4,5,6,7,8-hexahydro-1,2,6-triaza-cyclopenta[b]naphthalene-4a-carboxylic acid methyl ester]
Ki [1]: > 20 nM | Ki [2]: ≥ 1 nM

O=S(=O)(c1cccc(N2CC[C@@H](F)C2)c1)N1CCC2=Cc3c(cnn3-c3ccc(F)cc3)C[C@]2(COCC2CC2)C1 [Example 1, (R)-4a-Cyclopropylmethoxymethyl-1-(4-fluorophenyl)-6-[3-((R)-3-fluoropyrrolidin-1-yl)-benzenesulfonyl]-4,4a,5,6,7,8-hexahydro-1H-1,2,6-triaza-cyclopenta[b]naphthalene]
Ki [1]: < 10 nM | Ki [2]: ≥ 1 nM

COC[C@]12Cc3cnn(-c4ccc(F)cc4)c3C=C1CCN(S(=O)(=O)c1cccc(N3CCCC3)c1)C2 [Example 6, (R)-1-(4-Fluoro-phenyl)-4a-methoxymethyl-6-[3-(pyrrolidin-1-yl)-benzenesulfonyl)-4,4a,5,6,7,8-hexahydro-1H-1,2,6-triaza-cyclopenta[b]naphthalene]
Ki [1]: 10 to 20 nM | Ki [2]: 0.5 to 1 nM

COC[C@]12Cc3cnn(-c4ccc(F)cc4)c3C=C1CCN(S(=O)(=O)c1ccc(N3CCCC3)cc1)C2 [Example 10, (R)-1-(4-Fluoro-phenyl)-6-[4-(pyrrolidin-1-yl)-benzenesulfonyl]-4a-methoxymethyl-4,4a,5,6,7,8-hexahydro-1H-1,2,6-triaza-cyclopenta[b]naphthalene]
Ki [1]: > 20 nM | Ki [2]: 0.5 to 1 nM

CCOC(=O)[C@]12Cc3cnn(-c4ccc(F)cc4)c3C=C1CCN(S(=O)(=O)c1cccc(N3CC[C@@H](F)C3)c1)C2 [Example 11, (R)-1-(4-Fluoro-phenyl)-6-[3-((R)-3-fluoro-pyrrolidin-1-yl)-benzenesulfonyl]-1,4,5,6,7,8-hexahydro-1,2,6-triaza-cyclopenta[b]naphthalene-4a-carboxylic acid ethyl ester]
Ki [1]: 10 to 20 nM | Ki [2]: 0.5 to 1 nM

COC[C@]12Cc3cnn(-c4ccc(F)cc4)c3C=C1CCN(S(=O)(=O)c1cccc(N3CC[C@@H](F)C3)c1)C2 [Example 4, (R)-1-(4-Fluorophenyl)-6-[3-((R)-3-fluoropyrrolidin-1-yl)-benzenesulfonyl]-4a-methoxymethyl-4,4a,5,6,7,8-hexahydro-1H-1,2,6-triaza-cyclopenta[b]naphthalene]
Ki [1]: 10 to 20 nM | Ki [2]: ≥ 1 nM

O=S(=O)(c1cccc(N2CCCC2)c1)N1CCC2=Cc3c(cnn3-c3ccc(F)cc3)C[C@]2(COCC2CC2)C1 [Example 3, (R)-4a-Cyclopropylmethoxymethyl-1-(4-fluorophenyl)-6-[3-(pyrrolidin-1-yl)-benzenesulfonyl]-4,4a,5,6,7,8-hexahydro-1H-1,2,6-triaza-cyclopenta[b]naphthalene]
Ki [1]: < 10 nM | Ki [2]: ≥ 1 nM
